The numbers were not newly measured in US8697115B2, “Method of improving antioxidant status of an infant” (Abbott Laboratories, priority 2002, dated 2014), which cites them from elsewhere.

For series [1] the following is noted: Food Chemicals Codex effective Jul. 1, 1996.
The conditions of series [2]: adults.
For series [3] the following is noted: α-tocopherol equivalents; from Vitamin E in Health and Disease, 1993.
For series [4] the following is noted: capsule with both forms for 5 days prior to giving birth.

Consider `Cc1c(C)c2c(c(C)c1O)CCC(C)(CCCC(C)CCCC(C)CCCC(C)C)O2` (racemic) [d,l-α-tocopherol, 2DL,4′DL,8′DL-α-tocopherol], for which the “Activity (IU/mg)” value in series [1] is 1.1 IU/mg.
As for `Cc1c(C)c2c(c(C)c1O)CC[C@@](C)(CCC[C@H](C)CCC[C@H](C)CCCC(C)C)O2` [RRR-α-tocopherol, 2R,4′R,8′R-α-tocopherol], in series [2], the “enrichment in VLDL secreted by the liver over all-rac-α-tocopherol” value is recorded as 4 fold. In addition, the “Activity as α-TE (mg/mg compound)” value in series [3] was 1.0 mg/mg compound. The “Activity (IU/mg)” value in series [1] was 1.49 IU/mg. In series [4], the “amount in placental cord blood relative to synthetic vitamin E” value is reported as about 3.5 times. In addition, in series [4] (in words), the “concentration in the mother's own blood at delivery relative to synthetic vitamin E” value is on record as “nearly twice”.
As to `CC(C)=CCC/C(C)=C/CC/C(C)=C/CC[C@]1(C)CCc2c(C)c(O)c(C)c(C)c2O1` [RRR-α-tocotrienol], the “Activity as α-TE (mg/mg compound)” value in series [3] is 0.3 mg/mg compound.
For the compound `Cc1cc(O)c(C)c2c1O[C@](C)(CCC[C@H](C)CCC[C@H](C)CCCC(C)C)CC2` [RRR-β-tocopherol], the “Activity as α-TE (mg/mg compound)” value in series [3] is 0.5 mg/mg compound.
Turning to `CC(C)=CCC/C(C)=C/CC/C(C)=C/CC[C@]1(C)CCc2c(C)c(O)cc(C)c2O1` [RRR-β-tocotrienol], in series [3], the “Activity as α-TE (mg/mg compound)” value was 0.05 mg/mg compound.
Consider `Cc1c(O)cc2c(c1C)O[C@](C)(CCC[C@H](C)CCC[C@H](C)CCCC(C)C)CC2` [RRR-γ-tocopherol], for which the “Activity as α-TE (mg/mg compound)” value in series [3] was 0.1 mg/mg compound.
On to `Cc1cc(O)cc2c1O[C@](C)(CCC[C@H](C)CCC[C@H](C)CCCC(C)C)CC2` [RRR-δ-tocopherol], for which the “Activity as α-TE (mg/mg compound)” value in series [3] is given as 0.03 mg/mg compound.
For the compound `CC(=O)Oc1c(C)c(C)c2c(c1C)CCC(C)(CCCC(C)CCCC(C)CCCC(C)C)O2` (stereo not drawn) [d,l-α-tocopherol acetate], the “Activity as α-TE (mg/mg compound)” value in series [3] was 0.74 mg/mg compound. For the same compound, the “Activity (IU/mg)” value in series [1] was 1.0 IU/mg.
Turning to `Cc1c(C)c2c(c(C)c1OC(=O)CCC(=O)O)CCC(C)(CCCC(C)CCCC(C)CCCC(C)C)O2` (stereo not drawn) [d,l-α-tocopherol acid succinate], in series [1], the “Activity (IU/mg)” value was 0.89 IU/mg.
On to `CC(=O)Oc1c(C)c(C)c2c(c1C)CC[C@@](C)(CCC[C@H](C)CCC[C@H](C)CCCC(C)C)O2` [d-α-tocopherol acetate], for which, in series [2] (in words), the “preferential utilization compared to all-rac-α-tocopheryl acetate” value is reported as “about twice”. Besides, the “Activity (IU/mg)” value in series [1] is given as 1.36 IU/mg.
Regarding `Cc1c(C)c2c(c(C)c1OC(=O)CCC(=O)O)CC[C@@](C)(CCC[C@H](C)CCC[C@H](C)CCCC(C)C)O2` [d-α-tocopherol acid succinate], in series [1], the “Activity (IU/mg)” value is listed as 1.21 IU/mg.
